# How the values were obtained:
# human P2X4 = molecular target: T1, human P2X4 (Homo sapiens, UniProt Q99571); test: Human P2X4 HEK Cell FLIPR Assay; assay type: cell-based; conditions: HEK293 stably expressing human P2X4, agonist Bz-ATP 3 μM (EC80); for IC50: read-out: Human P2X4 HEK Cells (FLIPR Assay) avg IC50
# T1 construct: expressed in transfected cells
# T1 sequence (Q99571 1-388): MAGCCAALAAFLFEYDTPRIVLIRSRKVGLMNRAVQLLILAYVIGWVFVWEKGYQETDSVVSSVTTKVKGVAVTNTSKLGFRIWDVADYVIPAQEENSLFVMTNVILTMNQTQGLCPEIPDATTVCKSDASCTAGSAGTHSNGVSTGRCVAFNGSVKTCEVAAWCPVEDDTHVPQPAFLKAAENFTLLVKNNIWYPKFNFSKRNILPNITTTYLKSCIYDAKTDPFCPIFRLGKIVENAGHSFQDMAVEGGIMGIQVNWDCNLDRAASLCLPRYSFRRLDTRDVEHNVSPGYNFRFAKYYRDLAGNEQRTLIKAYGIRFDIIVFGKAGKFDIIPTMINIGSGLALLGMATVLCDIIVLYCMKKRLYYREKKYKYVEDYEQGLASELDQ
# Summary of the method: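 Compounds were preincubated 30 min at room temperature on Fluo8-AM-loaded HEK293 cells stably expressing human P2X4. The response was the calcium fluorescence rise on Bz-ATP addition.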
# rat P2X4 = molecular target: T2, rat P2X4 (Rattus norvegicus, UniProt P51577); test: FLIPR Method for Rat P2X4 1321N1 Astrocytoma Cells; assay type: cell-based; conditions: 1321N1 stably expressing rat P2X4; agonist MgATP 5 μM (EC80)
# T2 construct: expressed in transfected cells
# T2 sequence (P51577 1-388): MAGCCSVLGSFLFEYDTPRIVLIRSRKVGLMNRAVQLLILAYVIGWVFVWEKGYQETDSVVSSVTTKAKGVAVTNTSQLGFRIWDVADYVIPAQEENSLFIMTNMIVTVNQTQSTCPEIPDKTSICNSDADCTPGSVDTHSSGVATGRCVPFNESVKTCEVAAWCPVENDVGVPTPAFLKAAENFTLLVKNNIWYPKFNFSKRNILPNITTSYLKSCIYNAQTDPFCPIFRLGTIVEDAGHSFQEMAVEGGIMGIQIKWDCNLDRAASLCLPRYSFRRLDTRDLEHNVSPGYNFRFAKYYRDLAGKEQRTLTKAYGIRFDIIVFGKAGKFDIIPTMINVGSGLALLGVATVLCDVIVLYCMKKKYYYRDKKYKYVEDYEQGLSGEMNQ
# Method: Compounds were tested on a 1321N1 cell line stably expressing rat P2X4. Cells were cultured on collagen-I-coated 384-well plates at a density of 10,000 cells/well and incubated overnight at 37° C., 5% CO2. P2X4 function was assessed by measuring intracellular calcium fluxes caused by Magnesium-ATP (MgATP) using the calcium-chelating dye Fluo8-AM (Molecular Devices) with the Fluorescent Imaging Plate Reader Tetra (FLIPR^Tetra; Molecular Devices CA). On the day of the assay, the medium was removed and the cells were incubated for 30 minutes at 37° C. and 5% CO2 in 30 μl of dye buffer (Hank's balanced salt solution, 10 mM HEPES, 1.8 mM CaCl2, 1 mM MgCl2, 2 mM probenecid, 5 mM D-glucose monohydrate, 5 μM Fluo8-AM, pH=7.4).
# Compounds diluted in probenecid buffer (Hank's balanced salt solution, 10 mM HEPES, 1.8 mM CaCl2, 1 mM MgCl2, 2 mM probenecid, 5 mM D-glucose monohydrate, pH=7.4) at ten concentrations ranging from 25 μM to 1 nM (final concentration) were dispensed and incubated for 30 minutes at room temperature. The agonist, MgATP (Sigma-Aldrich Chemie GmbH, DE), was added at a final concentration of 5 μM, representing the EC80 routinely determined. The final assay volume was 50 μl and final DMSO concentration was 0.5%.
# The fluorescence intensity reflecting intracellular calcium changes was recorded before and after MgATP addition, at an excitation and emission wavelengths of 470-495 nm and 515-575 nm respectively.
# The compounds were tested in triplicates and fluorescence intensity raw data normalized to the agonist control and fitted to the four-parameter logistic equation:
# Y=Bottom+(Top−Bottom)/(1+10^((Log IC50−X)*HillSlope))
# Assay plate acceptance was based on the signal window (S/B)[…] and the reference compound pIC50 within ±[…] the mean of historic pIC50 of the compound. Failure to meet two of the three criteria determined exclusion of the plate's results. In Table 10 below the results for the assays are reported
SMILES,Human P2X4 HEK Cells (FLIPR Assay) avg Efficacy (human P2X4) [%],IC50 (human P2X4) [µM],IC50 (rat P2X4) [µM],Rat P2X4 1321N1 Astrocytoma Cells (FLIPR Assay) avg Efficacy (rat P2X4) [%]
"CC(=O)N(c1cc(NC(=O)Cc2c(Cl)cccc2Cl)ccn1)c1cc(F)ccc1Cl [Example 114, N-(2-chloro-5-fluorophenyl)-N-{4-[2-(2,6-dichlorophenyl)acetamido]pyridin-2-yl}acetamide]",97,0.256,0.181,99
"CC(=O)N(c1cccc(F)c1)c1cc(NC(=O)Cc2ccc(F)cc2Cl)ccn1 [Example 55, N-{4-[2-(2-chloro-4-fluorophenyl)acetamido]pyridin-2-yl}-N-(3-fluorophenyl)acetamide]",102,0.611,0.289,99
"CC(=O)N(c1cccc(F)c1)c1cc(NC(=O)Cc2c(Cl)cc(F)cc2Cl)ccn1 [Example 57, N-{4-[2-(2,6-dichloro-4-fluorophenyl)acetamido]pyridin-2-yl}-N-(3-fluorophenyl)acetamide]",99,0.377,0.122,97
"CC(=O)N(c1cc(F)cc(F)c1)c1cc(NC(=O)Cc2ccc(F)cc2Cl)ccn1 [Example 87, N-{4-[2-(2-chloro-4-fluorophenyl)acetamido]pyridin-2-yl}-N-(3,5-difluorophenyl)acetamide]",98,0.313,0.983,94
"COc1ccc(CC(=O)Nc2ccnc(N(C(C)=O)c3ccc(F)c(F)c3)c2)c(Cl)c1 [Example 70, N-{4-[2-(2-chloro-4-methoxyphenyl)acetamido]pyridin-2-yl}-N-(3,4-difluorophenyl)acetamide]",88,0.714,0.714,100
"CC(=O)N(c1cc(F)cc(F)c1)c1cc(NC(=O)Cc2c(Cl)cccc2Cl)ccn1 [Example 89, N-{4-[2-(2,6-dichlorophenyl)acetamido]pyridin-2-yl}-N-(3,5-difluorophenyl)acetamide]",99,0.169,0.103,98
"CC(=O)N(c1cc(NC(=O)Cc2c(F)cccc2Cl)ccn1)c1ccc(F)cc1F [Example 130, N-{4-[2-(2-chloro-6-fluorophenyl)acetamido]pyridin-2-yl}-N-(2,4-difluorophenyl)acetamide]",97,0.259,1.52,80
"CC(=O)N(c1cccc(C(F)F)c1)c1cc(NC(=O)Cc2c(Cl)cccc2Cl)ccn1 [Example 5, N-{4-[2-(2,6-dichlorophenyl)acetamido]pyridin-2-yl}-N-[3-(difluoromethyl)phenyl]acetamide]",102,0.386,0.44,100
"CC(=O)N(c1cc(F)cc(F)c1)c1cc(NC(=O)Cc2cccc(C)c2C)ccn1 [Example 83, N-(3,5-difluorophenyl)-N-{4-[2-(2,3-dimethylphenyl)acetamido]pyridin-2-yl}acetamide]",97,0.35,0.143,90
"CC(=O)N(c1cc(F)cc(F)c1)c1cc(NC(=O)Cc2ccccc2Cl)ccn1 [Example 86, N-{4-[2-(2-chlorophenyl)acetamido]pyridin-2-yl}-N-(3,5-difluorophenyl)acetamide]",98,0.196,0.393,98
"CC(=O)N(c1ccc(F)c(F)c1)c1cc(NC(=O)Cc2c(Cl)cc(C)cc2Cl)ccn1 [Example 74, N-{4-[2-(2,6-dichloro-4-methylphenyl)acetamido]pyridin-2-yl}-N-(3,4-difluorophenyl)acetamide]",89,0.585,0.0991,97
"CC(=O)N(c1ccc(F)c(F)c1)c1cc(NC(=O)Cc2cccc(F)c2Cl)ccn1 [Example 71, N-{4-[2-(2-chloro-3-fluorophenyl)acetamido]pyridin-2-yl}-N-(3,4-difluorophenyl)acetamide]",96,0.222,0.165,90
"CC(=O)N(c1cc(F)cc(F)c1)c1cc(NC(=O)Cc2ccccc2C(F)(F)F)ccn1 [Example 84, N-(3,5-difluorophenyl)-N-(4-{2-[2-(trifluoromethyl)phenyl]acetamido}pyridin-2-yl)acetamide]",100,0.314,1.03,100
"CC(=O)N(c1ccc(F)c(Cl)c1)c1cc(NC(=O)Cc2c(Cl)cccc2Cl)ccn1 [Example 53, N-(3-chloro-4-fluorophenyl)-N-{4-[2-(2,6-dichlorophenyl)acetamido]pyridin-2-yl}acetamide]",100,0.455,0.143,100
"COc1ccc(N(C(C)=O)c2cc(NC(=O)Cc3cccc(F)c3Cl)ccn2)cc1F [Example 79, N-{4-[2-(2-chloro-3-fluorophenyl)acetamido]pyridin-2-yl}-N-(3-fluoro-4-methoxyphenyl)acetamide]",97,0.399,1.11,96
"CC(=O)N(c1ccc(F)cc1)c1cc(NC(=O)Cc2c(Cl)cccc2C#N)ccn1 [Example 33, N-{4-[2-(2-chloro-6-cyanophenyl)acetamido]pyridin-2-yl}-N-(4-fluorophenyl)acetamide]",93,0.723,1.54,98
"CC(=O)N(c1ccc(F)c(F)c1)c1cc(NC(=O)Cc2c(Cl)cccc2Cl)ccn1 [Example 72, N-{4-[2-(2,6-dichlorophenyl)acetamido]pyridin-2-yl}-N-(3,4-difluorophenyl)acetamide]",97,0.355,0.0585,89
"CC(=O)N(c1ccc(Cl)c(F)c1)c1cc(NC(=O)Cc2cccc(F)c2Cl)ccn1 [Example 60, N-(4-chloro-3-fluorophenyl)-N-{4-[2-(2-chloro-3-fluorophenyl)acetamido]pyridin-2-yl}acetamide]",96,0.454,0.434,94

# From patent publication US20230257351A1, “SUBSTITUTED N-[…] HAVING P2X4 RECEPTOR ANTAGONISTIC ACTIVITY” (Bayer Aktiengesellschaft, priority 2020, published 2023)
